Source: ChEMBL document CHEMBL3885861, “Open TG-GATES”

Organism: Rattus norvegicus
Experiment: Open TG-GATES - Regimen: Daily Repeat
Format: toxicity, organism-based, Sprague-Dawley
Set-up: regimen Daily Repeat, gender Male, age 6 weeks
Settings: in vivo, po, 0 mg/kg, route gavage, dose level Control; for APTT / Bas / Eos / Fbg / Hb / Ht / Lym / MCH / MCHC / MCV / Mono / Neu / PT / Plat / RBC / Ret / WBC: tissue Blood; for KIDNEY_L / KIDNEY_R / KIDNEY_TOTAL: tissue Kidney; for LIVER: tissue Liver; for A/G / ALP / ALT / AST / BUN / CRE / Ca / Cl / DBIL / GLC / IP / K / LDH / Na / PL / RALB / TBIL / TC / TG / TP / gamma-GTP: tissue Plasma

CC(=N)S [THIOACETAMIDE]
TERMINAL_BW (72 h, time 3 day): 229.8 g | APTT (72 h, time 3 day): 17 s | Bas (72 h, time 3 day): 0% | Eos (72 h, time 3 day): 1% | Fbg (72 h, time 3 day): 232.2 mg/dL | Hb (72 h, time 3 day): 13.8 g/dL | Ht (72 h, time 3 day): 42.6% | Lym (72 h, time 3 day): 74.8% | MCH (72 h, time 3 day): 21.2 pg | MCHC (72 h, time 3 day): 32.5% | MCV (72 h, time 3 day): 65.3 fL | Mono (72 h, time 3 day): 8% | Neu (72 h, time 3 day): 16.4% | PT (72 h, time 3 day): 11.5 s | Plat (72 h, time 3 day): 111.4 x10_4/uL | RBC (72 h, time 3 day): 652.8 x10_4/ul | Ret (72 h, time 3 day): 7% | WBC (72 h, time 3 day): 125.1 x10_2/uL | KIDNEY_L (72 h, time 3 day): 1 g | KIDNEY_R (72 h, time 3 day): 1 g | KIDNEY_TOTAL (72 h, time 3 day): 2 g | LIVER (72 h, time 3 day): 10.7 g | A/G (72 h, time 3 day): 2.1 | ALP (72 h, time 3 day): 1014.4 IU/L | ALT (72 h, time 3 day): 31 IU/L | AST (72 h, time 3 day): 62.2 IU/L | BUN (72 h, time 3 day): 17 mg/dL | CRE (72 h, time 3 day): 0.6 mg/dL | Ca (72 h, time 3 day): 10.4 mg/dL | Cl (72 h, time 3 day): 104.2 meq/L | DBIL (72 h, time 3 day): 0.018 mg/dL | GLC (72 h, time 3 day): 196.6 mg/dL | IP (72 h, time 3 day): 7.6 mg/dL | K (72 h, time 3 day): 4.9 meq/L | LDH (72 h, time 3 day): 88 IU/L | Na (72 h, time 3 day): 137.6 meq/L | PL (72 h, time 3 day): 157.4 mg/dL | RALB (72 h, time 3 day): 4 g/dL | TBIL (72 h, time 3 day): 0.4 mg/dL | TC (72 h, time 3 day): 80.4 mg/dL | TG (72 h, time 3 day): 106.6 mg/dL | TP (72 h, time 3 day): 5.8 g/dL | gamma-GTP (72 h, time 3 day): 1 IU/L | TERMINAL_BW ([…], time 7 day): 254.8 g | TERMINAL_BW ([…], time 14 day): 312.2 g | TERMINAL_BW ([…], time 28 day): 377.5 g | APTT ([…], time 7 day): 17.3 s | Bas ([…], time 7 day): 0% | Eos ([…], time 7 day): 1% | Fbg ([…], time 7 day): 226.2 mg/dL | Hb ([…], time 7 day): 13.8 g/dL | Ht ([…], time 7 day): 41.8% | Lym ([…], time 7 day): 83.6% | MCH ([…], time 7 day): 20.8 pg | MCHC ([…], time 7 day): 33% | MCV ([…], time 7 day): 63.1 fL | Mono ([…], time 7 day): 4.4% | Neu ([…], time 7 day): 10.8% | PT ([…], time 7 day): 11.8 s | Plat ([…], time 7 day): 111.5 x10_4/uL | RBC ([…], time 7 day): 661.6 x10_4/ul | Ret ([…], time 7 day): 5.3% | WBC ([…], time 7 day): 145.6 x10_2/uL | APTT ([…], time 14 day): 17.4 s | Bas ([…], time 14 day): 0% | Eos ([…], time 14 day): 0.8% | Fbg ([…], time 14 day): 223.8 mg/dL | Hb ([…], time 14 day): 14.6 g/dL | Ht ([…], time 14 day): 44.1% | Lym ([…], time 14 day): 81% | MCH ([…], time 14 day): 20.2 pg | MCHC ([…], time 14 day): 33.1% | MCV ([…], time 14 day): 61.1 fL | Mono ([…], time 14 day): 5.8% | Neu ([…], time 14 day): 12.6% | PT ([…], time 14 day): 11.8 s | Plat ([…], time 14 day): 101.4 x10_4/uL | RBC ([…], time 14 day): 722.8 x10_4/ul | Ret ([…], time 14 day): 4.5% | WBC ([…], time 14 day): 145.6 x10_2/uL | APTT ([…], time 28 day): 17.5 s | Bas ([…], time 28 day): 0% | Eos ([…], time 28 day): 1% | Fbg ([…], time 28 day): 248.6 mg/dL | Hb ([…], time 28 day): 15.9 g/dL | Ht ([…], time 28 day): 46.8% | Lym ([…], time 28 day): 86.2% | MCH ([…], time 28 day): 19.7 pg | MCHC ([…], time 28 day): 33.9% | MCV ([…], time 28 day): 58 fL | Mono ([…], time 28 day): 4% | Neu ([…], time 28 day): 9.2% | PT ([…], time 28 day): 10.8 s | Plat ([…], time 28 day): 104.1 x10_4/uL | RBC ([…], time 28 day): 807.6 x10_4/ul | Ret ([…], time 28 day): 2.8% | WBC ([…], time 28 day): 194 x10_2/uL | KIDNEY_L ([…], time 7 day): 1.1 g | KIDNEY_R ([…], time 7 day): 1.1 g | KIDNEY_TOTAL ([…], time 7 day): 2.1 g | KIDNEY_L ([…], time 14 day): 1.2 g | KIDNEY_R ([…], time 14 day): 1.2 g | KIDNEY_TOTAL ([…], time 14 day): 2.3 g | KIDNEY_L ([…], time 28 day): 1.4 g | KIDNEY_R ([…], time 28 day): 1.4 g | KIDNEY_TOTAL ([…], time 28 day): 2.7 g | LIVER ([…], time 7 day): 11.8 g | LIVER ([…], time 14 day): 13.8 g | LIVER ([…], time 28 day): 15.2 g | A/G ([…], time 7 day): 1.8 | ALP ([…], time 7 day): 868.8 IU/L | ALT ([…], time 7 day): 27.4 IU/L | AST ([…], time 7 day): 56.8 IU/L | BUN ([…], time 7 day): 19.4 mg/dL | CRE ([…], time 7 day): 0.6 mg/dL | Ca ([…], time 7 day): 10.3 mg/dL | Cl ([…], time 7 day): 104.4 meq/L | DBIL ([…], time 7 day): 0.016 mg/dL | GLC ([…], time 7 day): 190.2 mg/dL | IP ([…], time 7 day): 7.1 mg/dL | K ([…], time 7 day): 5.2 meq/L | LDH ([…], time 7 day): 79 IU/L | Na ([…], time 7 day): 136.2 meq/L | PL ([…], time 7 day): 154.6 mg/dL | RALB ([…], time 7 day): 3.9 g/dL | TBIL ([…], time 7 day): 0.3 mg/dL | TC ([…], time 7 day): 75 mg/dL | TG ([…], time 7 day): 145.8 mg/dL | TP ([…], time 7 day): 6.1 g/dL | gamma-GTP ([…], time 7 day): 1 IU/L | A/G ([…], time 14 day): 2 | ALP ([…], time 14 day): 716 IU/L | ALT ([…], time 14 day): 32.2 IU/L | AST ([…], time 14 day): 64.8 IU/L | BUN ([…], time 14 day): 18.6 mg/dL | CRE ([…], time 14 day): 0.6 mg/dL | Ca ([…], time 14 day): 10.1 mg/dL | Cl ([…], time 14 day): 103 meq/L | DBIL ([…], time 14 day): 0.002 mg/dL | GLC ([…], time 14 day): 181.6 mg/dL | IP ([…], time 14 day): 7.1 mg/dL | K ([…], time 14 day): 4.7 meq/L | LDH ([…], time 14 day): 76 IU/L | Na ([…], time 14 day): 134.8 meq/L | PL ([…], time 14 day): 169 mg/dL | RALB ([…], time 14 day): 4.1 g/dL | TBIL ([…], time 14 day): 0.3 mg/dL | TC ([…], time 14 day): 81.6 mg/dL | TG ([…], time 14 day): 158.6 mg/dL | TP ([…], time 14 day): 6.1 g/dL | gamma-GTP ([…], time 14 day): 1.4 IU/L | A/G ([…], time 28 day): 1.9 | ALP ([…], time 28 day): 629 IU/L | ALT ([…], time 28 day): 29.4 IU/L | AST ([…], time 28 day): 63 IU/L | BUN ([…], time 28 day): 18.8 mg/dL | CRE ([…], time 28 day): 0.6 mg/dL | Ca ([…], time 28 day): 10.1 mg/dL | Cl ([…], time 28 day): 103 meq/L | DBIL ([…], time 28 day): 0 mg/dL | GLC ([…], time 28 day): 179.4 mg/dL | IP ([…], time 28 day): 6.8 mg/dL | K ([…], time 28 day): 4.5 meq/L | LDH ([…], time 28 day): 96.4 IU/L | Na ([…], time 28 day): 135.4 meq/L | PL ([…], time 28 day): 172.8 mg/dL | RALB ([…], time 28 day): 4.1 g/dL | TBIL ([…], time 28 day): 0.2 mg/dL | TC ([…], time 28 day): 83 mg/dL | TG ([…], time 28 day): 174.6 mg/dL | TP ([…], time 28 day): 6.3 g/dL | gamma-GTP ([…], time 28 day): 1.2 IU/L
